Publication doi:10.1101/2023.11.24.568596v1 (biorxiv, 2023)

Legend:
Conditions in all cases: binder
MST4 = MST4 (Homo sapiens, UniProt Q9P289)
TTK = biological target: T1, TTK (Homo sapiens, UniProt P33981)
T1 sequence (P33981 1-857): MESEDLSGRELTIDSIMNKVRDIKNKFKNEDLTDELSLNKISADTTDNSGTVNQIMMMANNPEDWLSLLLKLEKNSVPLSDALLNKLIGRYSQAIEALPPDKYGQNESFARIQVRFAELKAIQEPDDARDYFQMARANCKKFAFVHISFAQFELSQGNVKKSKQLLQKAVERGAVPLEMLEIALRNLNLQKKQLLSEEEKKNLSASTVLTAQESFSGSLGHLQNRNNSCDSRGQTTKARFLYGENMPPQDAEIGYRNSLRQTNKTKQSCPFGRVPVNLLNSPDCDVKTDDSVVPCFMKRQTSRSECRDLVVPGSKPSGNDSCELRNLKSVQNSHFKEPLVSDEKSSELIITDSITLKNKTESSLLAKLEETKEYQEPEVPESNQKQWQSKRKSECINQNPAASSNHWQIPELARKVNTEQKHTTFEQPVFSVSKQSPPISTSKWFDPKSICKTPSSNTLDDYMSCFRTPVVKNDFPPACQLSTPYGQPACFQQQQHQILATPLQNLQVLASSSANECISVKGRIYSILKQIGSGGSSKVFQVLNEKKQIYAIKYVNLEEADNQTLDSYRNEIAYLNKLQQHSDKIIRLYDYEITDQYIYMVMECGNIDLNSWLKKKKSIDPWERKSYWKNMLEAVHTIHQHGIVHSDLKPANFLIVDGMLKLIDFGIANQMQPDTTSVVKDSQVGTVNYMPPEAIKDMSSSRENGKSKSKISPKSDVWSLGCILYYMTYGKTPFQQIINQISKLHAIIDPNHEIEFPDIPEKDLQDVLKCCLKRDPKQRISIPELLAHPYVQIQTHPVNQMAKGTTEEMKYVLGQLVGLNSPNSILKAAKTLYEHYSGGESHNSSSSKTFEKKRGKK

MER = biological target: T2, MER (Homo sapiens, UniProt Q12866)
T2 sequence (Q12866 1-999): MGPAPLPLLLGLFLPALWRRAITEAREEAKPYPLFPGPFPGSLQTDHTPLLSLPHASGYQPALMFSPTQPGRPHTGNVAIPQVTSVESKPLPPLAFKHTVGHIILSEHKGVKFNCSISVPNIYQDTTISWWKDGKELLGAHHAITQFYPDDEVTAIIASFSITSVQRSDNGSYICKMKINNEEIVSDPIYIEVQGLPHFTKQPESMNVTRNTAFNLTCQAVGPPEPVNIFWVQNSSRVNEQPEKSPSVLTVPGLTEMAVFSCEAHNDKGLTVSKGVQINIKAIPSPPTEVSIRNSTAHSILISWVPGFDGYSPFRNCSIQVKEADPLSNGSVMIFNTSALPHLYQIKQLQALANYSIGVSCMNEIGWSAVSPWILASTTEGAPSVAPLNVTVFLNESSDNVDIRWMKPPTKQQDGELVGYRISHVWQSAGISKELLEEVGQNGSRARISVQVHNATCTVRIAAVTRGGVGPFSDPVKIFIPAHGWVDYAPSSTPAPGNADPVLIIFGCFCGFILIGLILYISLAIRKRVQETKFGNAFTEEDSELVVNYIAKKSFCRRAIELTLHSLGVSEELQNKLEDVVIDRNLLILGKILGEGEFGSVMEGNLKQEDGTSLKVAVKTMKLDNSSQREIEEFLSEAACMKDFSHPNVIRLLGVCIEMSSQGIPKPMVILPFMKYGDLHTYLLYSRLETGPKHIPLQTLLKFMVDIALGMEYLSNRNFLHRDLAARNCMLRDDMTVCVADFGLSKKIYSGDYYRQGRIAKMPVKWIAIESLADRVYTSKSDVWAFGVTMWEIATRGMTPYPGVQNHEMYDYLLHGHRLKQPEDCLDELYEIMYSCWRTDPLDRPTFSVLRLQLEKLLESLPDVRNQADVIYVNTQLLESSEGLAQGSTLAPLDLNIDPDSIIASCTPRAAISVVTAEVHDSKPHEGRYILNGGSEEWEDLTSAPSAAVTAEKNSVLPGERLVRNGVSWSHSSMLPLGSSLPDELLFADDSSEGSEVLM

MST4, sequence (Q9P289 whole entry): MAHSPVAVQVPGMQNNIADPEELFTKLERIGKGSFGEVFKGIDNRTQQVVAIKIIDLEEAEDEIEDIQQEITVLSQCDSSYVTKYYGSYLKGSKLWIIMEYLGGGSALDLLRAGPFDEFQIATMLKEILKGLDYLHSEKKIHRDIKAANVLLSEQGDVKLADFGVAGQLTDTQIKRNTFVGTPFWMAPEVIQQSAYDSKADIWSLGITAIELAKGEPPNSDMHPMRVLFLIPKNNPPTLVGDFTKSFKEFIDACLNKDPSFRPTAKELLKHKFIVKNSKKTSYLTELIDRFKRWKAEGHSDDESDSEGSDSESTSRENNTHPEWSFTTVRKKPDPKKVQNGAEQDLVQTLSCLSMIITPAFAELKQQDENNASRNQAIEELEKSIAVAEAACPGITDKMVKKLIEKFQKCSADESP

With CNc1ncc2cc(-c3ccc(-c4cccc(C)n4)cc3Cl)c(=O)n(CCCCN)c2n1 [compound 20, MRLW5] the “dTm MST4” value (MST4) was 11.4 °C.
In the case of CNc1ncc2cc(-c3ccc(-c4cccc(C)n4)cc3Cl)c(=O)n(CCC3CCNCC3)c2n1 [compound 22, 6-(2-Chloro-4-(6-methylpyridin-2-yl)phenyl)-2-(methylamino)-8-(2-(piperidin-4-yl)ethyl)pyrido[2,3-d]pyrimidin-7(8H)-one], the “dTm MST4” value (MST4) was 7.8 °C.
In the case of CNc1ncc2cc(-c3ccc(-c4cccc(C)n4)cc3Cl)c(=O)n(C[C@H]3CC[C@H](N)CC3)c2n1 [compound 23, 23], the “dTm MST4” value (MST4) was 8.2 °C.
Cc1cccc(-c2ccc(-c3cc4cnc(Nc5ccc(F)c(CO)c5)nc4n(CCCCN)c3=O)c(Cl)c2)n1 [compound 33, 8-(4-Aminobutyl)-6-(2-chloro-4-(6-methylpyridin-2-yl)phenyl)-2-((4-fluoro-3-(hydroxymethyl)phenyl)amino)pyrido[2,3-d]pyrimidin-7(8H)-one] was tested, and the “dTm 33” value (TTK) was 1.3 °C and the “dTm 33” value (MER) was 3.1 °C.
For COc1ccc(O)c(Nc2ncc3cc(-c4ccc(-c5cccc(C)n5)cc4Cl)c(=O)n(CCCCN)c3n2)c1 [compound 34, 8-(4-Aminobutyl)-6-(2-chloro-4-(6-methylpyridin-2-yl)phenyl)-2-((2-hydroxy-5-methoxy-phenyl)amino)pyrido[2,3-d]pyrimidin-7(8H)-one], the “dTm 34” value (TTK) was 2.9 °C and the “dTm 34” value (MER) was 0.1 °C.
With COc1cc(N2CCOCC2)ccc1Nc1ncc2cc(-c3ccc(-c4cccc(C)n4)cc3Cl)c(=O)n(CCCCN)c2n1 [compound 35, 8-(4-Aminobutyl)-6-(2-chloro-4-(6-methylpyridin-2-yl)phenyl)-2-((2-methoxy-4-morpholino-phenyl)amino)pyrido[2,3-d]pyrimidin-7(8H)-one] the “dTm 35” value (TTK) was 7.8 °C and the “dTm 35” value (MER) was 0.0 °C.
COc1cc(N2CCN(C)CC2)ccc1Nc1ncc2cc(-c3ccc(-c4cccc(C)n4)cc3Cl)c(=O)n(CCCCN)c2n1 [compound 36, 8-(4-Aminobutyl)-6-(2-chloro-4-(6-methylpyridin-2-yl)phenyl)-2-((2-methoxy-4-(4-methylpiperazin-1-yl)phenyl)amino)pyrido[2,3-d]pyrimidin-7(8H)-one] was tested, and the “dTm 36” value (TTK) was 4.3 °C and the “dTm 36” value (MER) was -0.2 °C.
